From patent publication EP3821889A1, “METHODS FOR USING LOW-DOSE […] MYOCARIAL INFARCTION” (Institut de Cardiologie de Montréal, priority 2019, dated 2021)
“And” between values parts separate entries of the source, which are not always exact repeats. Equal values may be shown once. “Also recorded” adds a separate entry of the source.

What was measured:
[1] = tested on: patients recruited within 30 days after a myocardial infarction; conditions: human, in vivo
[2] = tested on: High-sensitivity C-reactive protein; conditions: in vivo
[3] = tested on: patients recruited within 30 days after a myocardial infarction; conditions: in vivo
[4] = tested on: white-cell count; conditions: in vivo
[5] = tested on: patients with stable coronary disease; conditions: in vivo; cited from earlier work
[6] = CIRT; cited from earlier work

## COc1cc2c(c(OC)c1OC)-c1ccc(OC)c(=O)cc1[C@@H](NC(C)=O)CC2 [Colchicine]
[1]
  Adjusted Hazard Ratio (95% CI), time to first primary endpoint: 0.78 (0.62-0.98)
  Death: 43 (1.8) number (percent)
  Death from cardiovascular causes: 20 (0.8) number (percent)
  Deep venous thrombosis or pulmonary embolus: 10 (0.4) number (percent)
  Hazard Ratio (95% CI), CV death: 0.83 (0.45-1.53)
  Hazard Ratio (95% CI), Death: 0.98 (0.64–1.49)
  Hazard Ratio (95% CI), Deep venous thrombosis or pulmonary embolus: 1.43 (0.54–3.75)
  Hazard Ratio (95% CI), MI: 0.84 (0.62-1.14)
  Hazard Ratio (95% CI), Resuscitated cardiac arrest: 1.00 (0.29-3.46)
  Hazard Ratio (95% CI), Stroke: 0.26 (0.10-0.71)
  Hazard Ratio (95% CI), Urgent hospitalization for angina requiring revascularization: 0.47 (0.28-0.78)
  Hazard Ratio (95% CI), WLW model, 1st Event: 0.77 (0.61; 0.96)
  Hazard Ratio (95% CI), WLW model, 2nd Event: 0.73 (0.48; 1.11)
  Hazard Ratio (95% CI), WLW model, 3rd Event: 0.64 (0.37; 1.10)
  Hazard Ratio (95% CI), WLW model, Average: 0.77 (0.61; 0.96)
  Hazard Ratio (95% CI), total primary endpoint events, Andersen-Gill model: 0.69 (0.54; 0.88)
  MI: 77 (3.4%) no. (%)
  Myocardial infarction: 89 (3.8) number (percent)
  Number of primary endpoint events per patient: 0 (number of patients): 2235
  Number of primary endpoint events per patient: 1 (number of patients): 111
  Number of primary endpoint events per patient: 2 (number of patients): 18
  Number of primary endpoint events per patient: 3 (number of patients): 1
  Number of primary endpoint events per patient: 4 (number of patients): 1
  Primary endpoint: 115(5.1%) no. (%)
  Rate of primary endpoint events per 100 patient-months: 0.29 per 100 patient-months
  Secondary composite end point: 111 (4.7) number (percent)
  Total number of primary endpoint events: 154
  Urgent hospitalization for angina leading to revascularization: 25 (1.1) number (percent)
  Urgent hospitalization for angina requiring revascularization: 22 (1.0%) no. (%)
  ischemic cardiovascular events / primary composite efficacy end point compared with placebo (in words): significantly lower percentage of patients with ischemic cardiovascular events than placebo; also recorded: statistically significant lower risk of ischemic cardiovascular events than placebo
  primary end point occurred in % of the patients: 5.5% and 5.1%
  secondary efficacy end point occurred in % of the patients: 4.7%
[2]
  Hs-C reactive protein, 6 months, geometric mean (IQR): 1.37 (0.75, 2.13) mg/L
  Hs-C reactive protein, Adjusted GM percent change (95% CI): -70.0% and -70.0 (-74.6, -64.5) %
  Hs-C reactive protein, Placebo-adjusted GM percent change (95% CI): -10.1% and -10.1 (-28.6, 13.4) %
  Hs-C reactive protein, Randomization, geometric mean (IQR): 4.27 (2.12, 7.22) mg/L
  reduction in the C-reactive protein level: > 65%
[3]
  Anemia: 14 (0.6) number of patients (percent)
  Any serious adverse event: 383 (16.4) number of patients (percent)
  At least one gastrointestinal adverse event: 17.5%
  Diarrhea reported, % of the patients: 9.7%
  Gastrointestinal hemorrhage: 7 (0.3) number of patients (percent)
  Gastrointestinal serious adverse event: 46 (2.0) number of patients (percent)
  Hospitalization for heart failure: 25 (1.1) number of patients (percent)
  Infection as a serious adverse event, % of the patients: 2.2%
  Infection serious adverse event: 51 (2.2) number of patients (percent)
  Leukopenia: 2 (0.1) number of patients (percent)
  Nausea adverse event: 43 (1.8) number of patients (percent)
  Pneumonia reported as a serious adverse event, % of the patients: 0.9%
  Pneumonia serious adverse event: 21 (0.9) number of patients (percent)
  Septic shock serious adverse event: 2 (0.1) number of patients (percent)
  Thrombocytopenia: 3 (0.1) number of patients (percent)
  incidence of adverse events considered to be related to trial drug: 16.0%
  incidence of septic shock (in words): did not increase the incidence of septic shock
  nausea, % of the patients: 1.8%
  overall incidence of serious adverse events: 16.4%
  serious adverse event of myopathy (in words): no serious adverse event of myopathy linked to colchicine
  trial regimen discontinued, % of the patients: 18.4%
[4]
  Circulating lymphocytes, 12 months, geometric mean (IQR): 1.83 (1.50, 2.44) 10^3/µL
  Circulating lymphocytes, Adjusted GM percent change (95% CI): 1.80 (-0.46, 4.11) %
  Circulating lymphocytes, Placebo-adjusted GM percent change (95% CI): 1.10 (-2.06, 4.36) %
  Circulating lymphocytes, Randomization, geometric mean (IQR): 1.79 (1.40, 2.40) 10^3/µL
  Circulating neutrophils, 12 months, geometric mean (IQR): 3.95 (3.27, 5.08) 10^3/µL
  Circulating neutrophils, Adjusted GM percent change (95% CI): -27.63 (-29.48, -25.73) %
  Circulating neutrophils, Placebo-adjusted GM percent change (95% CI): 0.45 (-3.28, 4.32) %
  Circulating neutrophils, Randomization, geometric mean (IQR): 5.45 (4.36, 7.15) 10^3/µL
  Total white blood cell count, 12 months, geometric mean (IQR): 6.95 (5.99, 8.30) 10^3/µL
  Total white blood cell count, Adjusted GM percent change (95% CI): -18.8% and -18.81 (-20.12, -17.47) %
  Total white blood cell count, Placebo-adjusted GM percent change (95% CI): 0.3% and 0.26 (-2.15, 2.72) %
  Total white blood cell count, Randomization, geometric mean (IQR): 8.54 (7.10, 10.40) 10^3/µL
[5]
  cardiovascular events (in words): fewer cardiovascular events

## CN(Cc1cnc2nc(N)nc(N)c2n1)c1ccc(C(=O)N[C@@H](CCC(=O)O)C(=O)O)cc1 [methotrexate]
[6]
  cardiovascular outcomes and plasma markers of inflammation (in words): did not affect cardiovascular outcomes or plasma markers of inflammation
